Measurements published in article PMC7794297.
“And” between values parts separate entries of the source, which are not always exact repeats. Identical values can stand only once. Like-named read-outs stand apart in the source and are kept apart here.

Legend:
glucose oxidase (GOx) = glucose oxidase (GOx) (Aspergillus niger, UniProt P13006); test: Glucose oxidase-directed DCL of building blocks 1-4; parameters: purchased Sigma Aldrich; unit not given here; conditions: blank vs GOx template DCL; GOx 57 μM, Secox 5% mol, 24 h
Protocol: The equilibration of the DCL was completed after 24 h (Fig. 9) and the oligomers were identified by HPLC-MS (Supplementary Figs. 4–20). The precise composition of the DCL (with and without GOx), was assessed by measuring the relative peak area (RPA). The normalized change of RPA was used to quantify the protein influence in the final DCL showing the amplification of the dimer of compound 4, that is (4)2 (Fig. 9b). Control experiments were set up to verify that the amplification of the dimer was not due to unspecific binding. Firstly the GOx was replaced by the bovine serum albumin (BSA). A stability study of BSA under the DCL conditions was performed using a fluorescence technique confirming the BSA stability in the DCL experiment (Supplementary Fig. 48)[50].
The DCL was stabilized for 24 h at 6 °C. Then, GOx was removed by ultracentrifugation through an Amicon ultra-filter (100 KDa). HPLC analysis was performed.

[1] = molecular target: bovine serum albumin (BSA) (Bos taurus, UniProt P02769); test: BSA-directed DCL of building blocks 1-4; parameters: purchased Roche; key to NC of RPA: normalized change of relative peak area (RPA) vs blank DCL; conditions: blank vs BSA-DCL; BSA 57 µM, Secox 5% mol, 24 h
[2] = Spermidine-templated DCL of building blocks 1-4;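 also: Spermidine-templated dynamic combinatorial library, normalized change of RPA compared between Secox-free and Secox-containing libraries, DCC runs done in triplicate, values given as mean ± SD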
[3] = NADPH-templated DCL of building blocks 1-4;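 also: values are means ± SD of DCC experiments run in triplicate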
[4] = Spermine-templated DCL of building blocks 1-4; conditions: spermine DCL of 1-4
Protocol: (§1) Building blocks 2 and 3 equipped with carboxylate moieties to establish interactions with the protonated amine groups of the spermine were allowed to equilibrate at pH 7.8 and 6 °C (Fig. 8a). As expected in our control experiment, the major component in the absence of spermine was the linear tetramer (2)2(3)2. After the addition of spermine, the linear tetramer “decomposed” in order to form mainly the cyclic tetramer of (2)4, and the (3)2 dimer (Fig. 8a). As it was reported, several studies determined that the spermine was threaded through the macrocycle fixing the configuration to a highly symmetric stereoisomer of (2)4[36]. […] The precise composition of the DCL (with and without spermine), was assessed by measuring the relative peak area (RPA). Indeed, the normalized change of RPA was used to quantify the spermine influence in the outcome (Supplementary Fig. 42)[46]. The same template (spermine) was tested in our reference DCL of four building blocks (1–4) in the absence and presence of Secox (Fig. 8b). […] Additionally, two different templates were tested to confirm the absence of conflict between selenocystine and the templating effect. Spermidine and NADPH were introduced in our 4 building blocks DCL (1–4) in the absence and presence of Secox, leading to the amplification of different species and getting the same results as the non-catalyzed DCLs (Supplementary Figs. 44, 45, Supplementary Tables 7–10, and Supplementary Methods).
The mixture was stabilized in 96 h. […] The mixture was stabilized after 24 h. […] It was stabilized in 24 h. […] DCL was equilibrated in 96 h. DCLs were performed without stirring at 6 °C and analyzed by HPLC-MS.

[5] = Spermine-templated DCL of building blocks 2 and 3; conditions: spermine DCL of 2 and 3
Protocol: as §1
The DCL was stabilized at 96 h. […] The mixture was stabilized after 24 h. […] The DCL was stabilized at 96 h. […] The DCL was analyzed in 96 h after equilibration. DCLs were performed without stirring at 6 °C and analyzed by HPLC-MS.

[6] = cited from earlier work
[7] = Equilibration of the thiol-disulfide DCL of building blocks 1-4 followed by HPLC-MS; conditions: 190 μM as fifth building block; Tris 20 mM pH 7.8, 6 °C; control 4 days
Protocol: DMSO percentage is 2.5% v/v. […] DCLs were analyzed by HPLC-MS until equilibration without stirring at 6 °C.
Control DCL. […] DMSO percentage is 2.5% v/v. Regarding Secox catalyzed DCL, different stocks of Secox were carried out in order to study the percentages of Secox. […] The DCLs were prepared at 6 °C without stirring and analyzed in several hours until the complete stabilization.

Sequence of bovine serum albumin (BSA) (P02769 25-607): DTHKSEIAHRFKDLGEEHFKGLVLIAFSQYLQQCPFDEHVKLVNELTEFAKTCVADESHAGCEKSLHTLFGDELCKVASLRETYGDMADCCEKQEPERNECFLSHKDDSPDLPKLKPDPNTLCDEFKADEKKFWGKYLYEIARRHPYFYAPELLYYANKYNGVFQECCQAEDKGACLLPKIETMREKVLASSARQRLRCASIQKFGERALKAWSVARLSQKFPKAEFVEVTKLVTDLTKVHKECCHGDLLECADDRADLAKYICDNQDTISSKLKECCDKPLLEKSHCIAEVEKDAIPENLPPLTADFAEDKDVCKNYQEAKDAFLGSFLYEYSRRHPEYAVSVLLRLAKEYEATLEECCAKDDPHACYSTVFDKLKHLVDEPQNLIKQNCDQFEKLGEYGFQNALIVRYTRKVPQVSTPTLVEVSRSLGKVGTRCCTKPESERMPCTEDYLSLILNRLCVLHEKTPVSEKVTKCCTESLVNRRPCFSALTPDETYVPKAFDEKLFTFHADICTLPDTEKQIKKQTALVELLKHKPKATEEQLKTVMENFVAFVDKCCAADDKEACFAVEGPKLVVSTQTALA
Sequence of glucose oxidase (GOx) (P13006 17-605): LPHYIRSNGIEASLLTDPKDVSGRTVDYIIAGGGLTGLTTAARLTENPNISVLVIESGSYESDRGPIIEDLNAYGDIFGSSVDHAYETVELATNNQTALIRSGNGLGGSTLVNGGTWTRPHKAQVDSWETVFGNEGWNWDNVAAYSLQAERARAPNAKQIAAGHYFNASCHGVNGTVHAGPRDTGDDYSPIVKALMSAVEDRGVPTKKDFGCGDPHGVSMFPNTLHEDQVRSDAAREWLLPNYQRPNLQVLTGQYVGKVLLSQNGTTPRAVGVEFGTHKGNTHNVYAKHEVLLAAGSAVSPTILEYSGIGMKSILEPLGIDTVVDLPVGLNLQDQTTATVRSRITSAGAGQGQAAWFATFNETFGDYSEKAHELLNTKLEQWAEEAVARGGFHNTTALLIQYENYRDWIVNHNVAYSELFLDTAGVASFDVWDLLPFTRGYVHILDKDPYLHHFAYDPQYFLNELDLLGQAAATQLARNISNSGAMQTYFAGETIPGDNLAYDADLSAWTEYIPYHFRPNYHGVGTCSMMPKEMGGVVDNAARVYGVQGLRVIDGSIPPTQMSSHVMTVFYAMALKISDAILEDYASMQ

| SMILES | NC of RPA (glucose oxidase (GOx)) | NC of RPA [1] | Normalized Change of RPA (NC) ([2]; 0% Secox) | Normalized Change of RPA (NC) ([2]; 5% Secox) | Normalized Change of RPA (NC) ([3]; 0% Secox) | Normalized Change of RPA (NC) ([3]; 5% Secox) | Normalized Change of RPA (NC) ([4]; 0% Secox) | Normalized Change of RPA (NC) ([4]; 5% Secox) | Normalized Change of RPA (NC) ([5]; Secox) | Normalized Change of RPA (NC) ([5]; no Secox) | pKa ([6]; Cys thiol group) | DCL equilibration time [7] [days] | pKa ([6]; Sec) |
| --- | --- | --- | --- | --- | --- | --- | --- | --- | --- | --- | --- | --- | --- |
| O=C(O)c1cccc(SSc2cc(SSc3cc(SSc4cccc(C(=O)O)c4)cc(C(=O)O)c3)cc(C(=O)O)c2)c1 [(1)2(3)2] | -0,36 | 0,63 | 0,34 | 0,27 | -0,06 | -0,06 | 0,46 | 0,38 |  |  |  |  |  |
| O=C(O)c1cc2cc(c1)SSc1cc(cc(C(=O)O)c1)SSc1cc(cc(C(=O)O)c1)SS2 [(1)3] | -0,21 | -0,19 | -0,42 | -0,44 | -0,70 | -0,68 | -0,65 | -0,66 |  |  |  |  |  |
| O=C(O)c1cc2cc(c1)SSc1cc(cc(C(=O)O)c1)SSc1cc(cc(C(=O)O)c1)SSc1cc(cc(C(=O)O)c1)SS2 [(1)4] | -0,86 | 0,14 | -0,47 | -0,43 | -0,84 | -0,88 | -0,14 | -0,12 |  |  |  |  |  |
| O=C(O)c1cc(SSc2ccccc2)cc(SSc2cc(C(=O)O)c(SSc3ccccc3)cc2C(=O)O)c1 [(1)(2)(4)2] | -1,00 | 2,84 | -1,00 | -1,00 | -1,00 | -1,00 | -1,00 | -1,00 |  |  |  |  |  |
| O=C(O)c1cccc(SSc2cc(SSc3cccc(C(=O)O)c3)cc(C(=O)O)c2)c1 [(1)(3)2] | -0,46 | -0,75 | 0,83 | 0,86 | 1,24 | 1,23 | 1,19 | 1,25 |  |  |  |  |  |
| O=C(O)c1cc(SSc2ccccc2)cc(SSc2ccccc2)c1 [(1)(4)2] |  | 45,89 |  |  |  |  |  |  |  |  |  |  |  |
| O=C(O)c1cccc(SSc2cc(C(=O)O)c(SSc3cc(C(=O)O)c(SSc4cccc(C(=O)O)c4)cc3C(=O)O)cc2C(=O)O)c1 [(2)2(3)2] | -1,00 | -1,00 | -1,00 | -1,00 | -0,69 | -0,64 | -1,00 | -1,00 |  |  |  |  |  |
| O=C(O)c1cc(SSc2cc(C(=O)O)c(SSc3ccccc3)cc2C(=O)O)c(C(=O)O)cc1SSc1ccccc1 [(2)2(4)2] | -1,00 | 0,31 | -1,00 | -1,00 | 0,13 | 0,11 | -1,00 | -1,00 |  |  |  |  |  |
| O=C(O)c1cccc(SSc2cc(C(=O)O)c(SSc3cccc(C(=O)O)c3)cc2C(=O)O)c1 [(2)(3)2] | 0,72 | -1,00 | -0,11 | -0,19 | 2,41 | 2,37 | -0,26 | -0,28 |  |  |  |  |  |
| O=C(O)c1cccc(SSc2cc(C(=O)O)c(SSc3ccccc3)cc2C(=O)O)c1 [(2)(3)(4)] | -0,32 | 0,95 | -0,64 | -0,65 | -0,12 | -0,12 | -0,75 | -0,74 |  |  |  |  |  |
| O=C(O)c1cc(SSc2ccccc2)c(C(=O)O)cc1SSc1ccccc1 [(2)(4)2] | 0,19 | 1,30 | 0,06 | 0,04 | -0,16 | -0,18 | 0,08 | 0,08 |  |  |  |  |  |
| O=C(O)c1cccc(SSc2cccc(C(=O)O)c2)c1 [(3)2, 3,3'-disulfanediyldibenzoic acid] | -0,35 | -0,64 | 0,51 | 0,51 | 0,56 | 0,49 | 0,49 | 0,49 | 0.1 | 0.1 |  |  |  |
| O=C(O)c1cccc(SSc2cc(SSc3ccccc3)cc(C(=O)O)c2)c1 [(3)(1)(4)] | 0,54 | 2,28 | -1,00 | -1,00 | -0,82 | -0,76 | -0,51 | -0,51 |  |  |  |  |  |
| N[C@@H](CS)C(=O)O [Cys, cysteine] |  |  |  |  |  |  |  |  |  |  | 8.22 and ~ 8.22 |  |  |
| N[C@@H](CSSC[C@H](N)C(=O)O)C(=O)O [Cysox, cystine] |  |  |  |  |  |  |  |  |  |  |  | 3 |  |
| N[C@@H](C[SeH])C(=O)O [Sec, selenocysteine] |  |  |  |  |  |  |  |  |  |  |  |  | 5.43 and ~ 5.43 |
